Results on 1 compound are retold here after US7005124B2, “Dendritic-antineoplastic drug delivery system” (priority 1997, dated 2006).

In one assay the test system is CCRF-CEM. Description: Cell cytotoxicity of dendrimer-platinate, MTT. The assay is classed as cell-based, human. The note with it: Pt-equiv. The protocol: (§1) All cellular growth and cytotoxic incubations were carried out in a cell incubator at 37° C. and 5% CO2 atmosphere.
(§2) Cell density was assessed using an improved neurenbrow hemocytometer (Sigma). The cells were washed with PBS twice and fresh RPMI media (supplemented with FCS) added, the cells were then seeded in a microtitre plate. The cells were left for 24 hours to recover and re-adhere. If cells were in a suspension they were spun at 1000×g and resuspended in fresh media.
(§3) Some cells were left in media only to act as cellular controls. The cells were left in the incubator for 72 hours, and checked occasionally for yeast or bacterial contamination. Five hours prior to the incubation time end point, at 67 hours, 20 μl of MTT was added and the cells left for the final 5 hours. Then cellular media was removed and 100 μl of optical grade DMSO (Sigma) was added and the MTT crystals dissolved.

For the next assay, the system named is Cor L23. The experiment in a line: Cell cytotoxicity of dendrimer-platinate, MTT. The assay is classed as cell-based, human. The settings on record: Pt-equiv. On the procedure: as §1, §2, §3
In assay [1] the test system is B16F10. Description: Cell cytotoxicity of dendrimer-platinate, MTT. The assay is classed as cell-based, murine. The settings on record: Pt-equiv. On the procedure: as §1, §2, §3
The subject of a further assay is L1210. The settings on record: L1210 ip.
Assay [2] has as its system B16F10. The experiment in a line: Activity against B16F10 I.P., I.P. injection. The note with it: dose 5 Pt-equiv mg/Kg, day 1. The assay is classed as in vivo, C57 mice.
Method: (§4) Alternatively drug was administered I.V. to mice bearing S.C. implanted B16F10 when the tumor reached palpable size (50–100 mm^2). Animal weight, tumor size and animal survival were monitored (UK guidelines for animal experiments involving neoplasia were followed.)
(§5) Li 210 or B16F10 cells were injected at a cell density into a mouse (DBA2 or C57 respectively, 25 g) at a cell density of 1×10^5 (0.9% saline solution) into the intraperitoneal (I.P. 100 μl) cavity. […] The mouse body weight and general toxicity was also monitored according to UK guidelines in the use of animals used in neoplasia studies. At the end point the gross morphology of the organs was noted.

Structures are written as SMILES. Read-outs that look alike come from different tables or passages of the source.

Method for L1210: as §4, §5

`N.N.[Cl][Pt][Cl]` [Cisplatin, cis-diamminedichloroplatinum]: the “IC50 Values” was 5 µg/mL in the assay with CCRF-CEM, 1 µg/mL in the assay with Cor L23 and 9 µg/mL with B16F10 [1]. The T/C is given as 171 with L1210 (dose 2 Pt-equiv mg/Kg I.P. days 1, 2, 3); 64 with L1210 (dose 3 Pt-equiv mg/Kg I.P. days 1, 2, 3); 89 in the assay with B16F10 [2].
